Values joined by “and” are separate entries in the source; they are usually repeats but may differ in a detail not shown here. Equal entries are not always repeated.
Assays:
[1] = Repeated-dose toxicity study in dogs; type: in vivo
Experimental: Repeated-dose toxicity studies of RRx-001 (3 times/week up to 4 weeks in duration) were conducted in rats at dose levels of 12 mg/kg, 20.1 mg/kg, and 30 mg/kg per day and in dogs at dose levels of 4 mg/kg, 8 mg/kg, and 12 mg/kg per day (due to clinical signs, the 8 mg/kg and 12 mg/kg doses were reduced to 3 mg/kg and 5 mg/kg on Day 4). The no observed adverse effect level was <12 mg/kg in rats and 5 mg/kg in dogs.

[2] = tested on: oral mucositis induced by acute radiation in hamsters; test: Oral mucositis induced by acute radiation in hamsters; type: in vivo, Golden Hamsters
Experimental: Referring to FIG. 11, FIG. 11 is a table 1100 showing a study design for an assessment of RRx-001 for the treatment of oral mucositis induced by acute radiation in hamsters. Mucositis was induced in 56 male Golden Hamsters via an acute radiation dose of 40 Gy directed to their left buccal cheek pouch. RRX-001 was administered with a vehicle comprising a 1:2 vol; vol ratio of N,N-Dimethylacetamide/40% Polyethylene Glycol (DMA:PBG). […] Otherwise, dosing was administered according to the “Dose Schedule” column of the table 1100. The study lasted 28 days. Mucositis was evaluated in hamsters from day 6 through day 28.
Starting at day 6 of the study and continuing every second day thereafter (day 8, 10, 12, 14, 16, 18, 20, 22, 24, 26, and 28), the hamsters were photographed and evaluated for mucositis scoring. The hamsters were anesthetized and the left pouch everted to evaluate a score each hamster based on a severity of mucositis. The scores, on a scale of 0-5, are defined as follows: • “0” means a pouch is completely healthy. • “1” means light to […] erythema and vasodilation and no erosion of mucosa. • “2” means severe erythema and vasodilation. Erosion of superficial aspects of mucosa leaving denuded areas. Decreased stippling of mucosa. • “3” means formation of off-white ulcers in one or more places. Ulcers may have a yellow/gray color due to pseudomembrane. Cumulative size of ulcers should equal less than or equal to ¼ of the pouch. Severe erythema and vasodilation. • “4” means a cumulative seize of ulcers should equal about ½ of the pouch. Loss of pliability. Severe erythema and vasodilation. • “5” means virtually all of pouch is ulcerated. Loss of pliability (pouch can only partially be extracted from mouth).
FIG. 15B is a bar graph 1550 showing a percent of cumulative animal days with mucositis scores greater than or equal to 3 for days 6-28. Statistical significance of the observed differences was calculated using chi-squared analysis.
FIG. 16B is a bar graph 1650 showing a percent of cumulative animal days with mucositis scores greater than or equal to 3 for days 6-28. Statistical significance of the observed differences was calculated using chi-squared analysis.
Referring to FIG. 18, FIG. 18 is a table 1800 showing a percent of hamsters with ulceration by day with mucositis scores of greater than or equal to 3. Each data point represents a percentage of hamsters in each group on a day that had both a mucositis score of 3 or greater and open ulcers. Like FIGS. 17A and 17B, horizontal shading denotes a decrease in mucositis scores and vertical shading denotes an increase in mucositis scores.

[3] = tested on: squamous cell carcinoma of the oral cavity or oropharynx; test: PREVLAR trial: tumor response and cancer recurrence; type: in vivo, human
Text: Referring to FIG. 6, FIG. 6 is a table 600 showing various incidences of outcomes for patients in Arm 4 of the PREVLAR study vs. patients in Arms 1, 2, and 3 of the PREVLAR study. The various outcomes include a complete response (CR), a partial response (PR), a CR or PR, not evaluable (NE), and missing. […] Thus, administration of RRx-001 was correlated to better outcomes.
Referring to FIG. 10, FIG. 10 is a bar graph 1000 showing a percentage of less cancer recurrence in RRx-001 treated patients. Accordingly, a higher percentage is correlated to the better outcome of lower cancer recurrence. […] Patients in Arm 4 had the lowest percentage drop of 30.8% of cancer recurrence.
The treatment phase commenced 2 weeks before the start of CRT and continued until the LDRT. The short-term follow-up stage started the day after LDRT and continued until complete resolution of ulcerative OM (World Health Organization (WHO) grade≤1 or 6 weeks after the LDRT, whichever came first). Long-term follow-up was performed to assess tumor response for 12 months after the LDRT. OM was assessed twice weekly beginning on the first day of CRT and continuing to resolution of ulcerative OM by trained evaluators using a standardized data collection tool.

[4] = pharmacokinetic data, J. Scicinski et al. 2011; cited from earlier work
[5] = cited from earlier work

O=C(CBr)N1CC([N+](=O)[O-])([N+](=O)[O-])C1 [RRx-001, 2-bromo-1-(3,3-dinitroazetidin-1-yl) ethan-1-one]
no observed adverse effect level ([1]; 3 times/week up to 4 weeks): 5 mg/kg
organ effects ([1]; repeated dose): Effects on lungs were observed
percent of hamsters with ulceration (mucositis score ≥3) ([2]; day 12, group 2 (10 mg/kg, discontinued after day 1)): 40%
percent of hamsters with ulceration (mucositis score ≥3) ([2]; day 28, group 2 (10 mg/kg, discontinued after day 1)): 40%
mean daily mucositis score ([2]; day 28, group 2 (10 mg/kg, dosing discontinued after day 1)): approximately 2.2
mean daily mucositis score ([2]; day 28, group 3 (3 mg/kg)): approximately 2.7
percent of hamsters with ulceration (mucositis score ≥3) ([2]; day 28, group 5 (10 mg/kg, discontinued after day 1)): 57.1%
mean daily mucositis score ([2]; day 28, group 5 (10 mg/kg, dosing discontinued after day 1)): approximately 2.6
mean daily mucositis score ([2]; day 28, group 6 (3 mg/kg)): approximately 2.7
percent of hamsters with ulceration (mucositis score ≥3) ([2]; day 28, groups 3 and 6 (3 mg/kg)): 75.0%
percent of hamsters with ulceration (mucositis score ≥3) ([2]; day 28, groups 4 and 7 (1 mg/kg)): 62.5%
percent of cumulative animal days with mucositis score greater than or equal to 3 ([2]; days 6-28, group 3 (3 mg/kg)): 63.54%
percent of cumulative animal days with mucositis score greater than or equal to 3 ([2]; days 6-28, group 6 (3 mg/kg), 3 mg/kg): 53.45% and 63.54%
body weight change ([2]; groups 2 and 5 (10 mg/kg)): initially lost weight, but rebounded
tolerability of dosing ([2]; groups 2 and 5 (10 mg/kg)): discontinued after day 1 due to adverse side effects
percentage drop of cancer recurrence ([3]; Arm 1): 50%
percentage drop of cancer recurrence ([3]; Arm 2): 53.8%
percentage drop of cancer recurrence ([3]; Arm 3): 76.9%
incidence of either CR or PR ([3]; patients in Arms 1, 2, or 3): 65.7%
incidence of complete response (CR) ([3]; patients that received RRx-001 in Arms 1, 2, or 3): 48.6%
half-life of RRx-001 [4]: under an hour
dose-limiting toxicities and drug-drug interactions ([5]; N. Jayabalan et al. 2023): no dose-limiting toxicities and no drug-drug interactions have been observed
safety and tolerability in humans ([5]; studies from multiple independent groups): safe and well-tolerated
tolerability in prior safety assessments in humans ([5]; with and without concurrent radiation therapy, T. Reid et al. 2015): well-tolerated without significant toxicity
